Test results: patent US10660876B2, “Amino compounds for treatment of medical disorders” (Achillion Pharmaceuticals, Inc., priority 2015, dated 2020)
pIC50: −log10 of the molar value.

The compounds below were run against Human Factor D (Homo sapiens (Human), UniProt P00746) (assay: Human Factor D Assay). Conditions: Table 1; Factor D purified from human serum, 80 nM, substrate Z-L-Lys-SBzl; read-out: IC50.
Type: biochemical
Experimental: Example 12. Human Factor D Assay
Human Factor D (purified from human serum, Complement Technology, Inc.) at 80 nM final concentration is incubated with test compound at various concentrations for 5 minutes at room temperature in 50 mM Tris, 1M NaCl, pH 7.5. A synthetic substrate Z-L-Lys-SBzl and DTNB (Ellman's reagent) are added to final concentrations of 100 μM each. Absorbance at 405 nm (A405) is recorded at 30 second intervals for 30 minutes using a microplate spectrophotometer. IC50 values are calculated by nonlinear regression of complement Factor D reaction rates as a function of test compound concentration.

Chain of Human Factor D (P00746 26-253): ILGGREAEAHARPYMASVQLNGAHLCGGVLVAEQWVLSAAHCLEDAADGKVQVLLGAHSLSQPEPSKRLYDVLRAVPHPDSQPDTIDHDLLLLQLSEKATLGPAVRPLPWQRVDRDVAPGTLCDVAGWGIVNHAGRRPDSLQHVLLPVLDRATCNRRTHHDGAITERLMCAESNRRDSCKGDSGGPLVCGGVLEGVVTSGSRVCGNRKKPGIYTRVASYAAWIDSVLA

`N#Cc1cnc(Nc2ccc3c(c2)c(C(N)=O)nn3CC(=O)N2C[C@H](F)C[C@H]2C(=O)Nc2cccc(-c3ccccc3Cl)c2F)nc1` [Compound 13, 1-(2-((2S,4R)-2-(2′-chloro-2-fluorobiphenyl-3-ylcarbamoyl)-4-fluoropyrrolidin-1-yl)-2-oxoethyl)-5-(5-cyanopyrimidin-2-ylamino)-1H-indazole-3-carboxamide] and `NC(=O)c1nn(CC(=O)N2C[C@H](F)C[C@H]2C(=O)Nc2cccc(-c3ccccc3Cl)c2F)c2ccc(Nc3cnc(C(F)(F)F)nc3)cc12` [Compound 14, 1-(2-((2S,4R)-2-(2′-chloro-2-fluorobiphenyl-3-ylcarbamoyl)-4-fluoropyrrolidin-1-yl)-2-oxoethyl)-5-(2-(trifluoromethyl)pyrimidin-5-ylamino)-1H-indazole-3-carboxamide] cannot be ordered by pIC50: > 6.00 for the first, > 6.00 for the second.

`CC(=O)c1cn(CC(=O)N2C[C@H](F)C[C@H]2C(=O)Nc2cccnc2)c2ccc(Nc3cncnc3)cc12` [Compound 31, (2S,4R)-1-(2-(3-acetyl-5-(pyrimidin-5-ylamino)-1H-indol-1-yl)acetyl)-4-fluoro-N-(pyridin-3-yl)pyrrolidine-2-carboxamide] and `CC(=O)c1cn(CC(=O)N2C[C@H](F)C[C@H]2C(=O)NCc2cccnc2)c2ccc(Nc3cncnc3)cc12` [Compound 43, (2S,4R)-1-(2-(3-acetyl-5-(pyrimidin-5-ylamino)-1H-indol-1-yl)acetyl)-4-fluoro-N-(pyridin-3-ylmethyl) pyrrolidine-2-carboxamide] cannot be ordered by pIC50: > 6.00 for the first, > 6.00 for the second.

`CC(=O)c1cn(CC(=O)N2C[C@H](F)C[C@H]2C(=O)Nc2cccc3c2NC(=O)C(C)O3)c2ccc(Nc3cncnc3)cc12` (stereo partly drawn) [Compound 71, (2S,4R)-1-(2-(3-acetyl-5-(pyrimidin-5-ylamino)-1H-indol-1-yl)acetyl)-4-fluoro-N-(2-methyl-3-oxo-3,4-dihydro-2H-benzo[b][1,4]oxazin-5-yl)pyrrolidine-2-carboxamide] and `CC(=O)c1cn(CC(=O)N2C[C@H](F)C[C@H]2C(=O)Nc2ccc(O)cn2)c2ccc(Nc3cncnc3)cc12` [Compound 70, (2S,4R)-1-(2-(3-acetyl-5-(pyrimidin-5-ylamino)-1H-indol-1-yl)acetyl)-4-fluoro-N-(5-hydroxypyridin-2-yl)pyrrolidine-2-carboxamide] fall in the same range of pIC50: 5.00 to 6.00 for the first, 5.00 to 6.00 for the second.

Going from `CC(=O)c1cn(CC(=O)N2C[C@H](F)C[C@H]2C(=O)N[C@H](C)c2oc3ccc(F)cc3c2C)c2ccc(Nc3cncnc3)cc12` [Compound 74, (2S,4R)-1-(2-(3-acetyl-5-(pyrimidin-5-ylamino)-1H-indol-1-yl)acetyl)-4-fluoro-N-((R)-1-(5-fluoro-3-methyl-benzofuran-2-yl)ethyl) pyrrolidine-2-carboxamide] to `CC(=O)c1cn(CC(=O)N2C[C@H](F)C[C@H]2C(=O)NCc2cc(F)cc(Cl)c2)c2ccc(Nc3cncnc3)cc12` [Compound 18, (2S,4R)-1-(2-(3-acetyl-5-(pyrimidin-5-ylamino)-1H-indol-1-yl)acetyl)-N-(3-chloro-5-fluorobenzyl)-4-fluoropyrrolidine-2-carboxamide], the pIC50 rises from < 5.00 to > 6.00. The second is the more potent here.

`CC(=O)c1cn(CC(=O)N2C[C@H](F)C[C@H]2C(=O)Nc2ccc3cn[nH]c3c2)c2ccc(Nc3cncnc3)cc12` [Compound 25, (2S,4R)-1-(2-(3-acetyl-5-(pyrimidin-5-ylamino)-1H-indol-1-yl)acetyl)-4-fluoro-N-(1H-indazol-6-yl)pyrrolidine-2-carboxamide] and `CC(=O)c1cn(CC(=O)N2C[C@H](F)C[C@H]2C(=O)Nc2ccc3ccccc3c2)c2ccc(Nc3cncnc3)cc12` [Compound 46, (2S,4R)-1-(2-(3-acetyl-5-(pyrimidin-5-ylamino)-1H-indol-1-yl)acetyl)-4-fluoro-N-(naphthalen-2-yl)pyrrolidine-2-carboxamide] cannot be ordered by pIC50: > 6.00 for the first, > 6.00 for the second.

First: CC(=O)c1cn(CC(=O)N2C[C@H](F)C[C@H]2C(=O)N[C@@H]2CCC[C@H]2O)c2ccc(Nc3cncnc3)cc12 [Compound 69, (2S,4R)-1-(2-(3-acetyl-5-(pyrimidin-5-ylamino)-1H-indol-1-yl)acetyl)-4-fluoro-N-((1R,2R)-2-hydroxy-cyclopentyl) pyrrolidine-2-carboxamide]
Second: CC(=O)c1cn(CC(=O)N2C[C@H](F)C[C@H]2C(=O)NC2CCCN(c3cnn(C)c3)C2)c2ccc(Nc3cncnc3)cc12 (stereo partly drawn) [Compound 42, (2S,4R)-1-(2-(3-acetyl-5-(pyrimidin-5-ylamino)-1H-indol-1-yl)acetyl)-4-fluoro-N-(1-(1-methyl-1H-pyrazol-4-yl)piperidin-3-yl)pyrrolidine-2-carboxamide]
The pIC50 of the first is lower: 5.00 to 6.00 for the first, > 6.00 for the second.

Going from `CC(=O)c1cn(CC(=O)N2C[C@H](F)C[C@H]2C(=O)Nc2cc(C)nn2-c2ccccc2F)c2ccc(Nc3cncnc3)cc12` [Compound 57, (2S,4R)-1-(2-(3-acetyl-5-(pyrimidin-5-ylamino)-1H-indol-1-yl)acetyl)-4-fluoro-N-(1-(2-fluorophenyl)-3-methyl-1H-pyrazol-5-yl)pyrrolidine-2-carboxamide] to `CC(=O)c1cn(CC(=O)N2C[C@H](F)C[C@H]2C(=O)Nc2ccccc2-c2nncn2C)c2ccc(Nc3cncnc3)cc12` [Compound 61, (2S,4R)-1-(2-(3-acetyl-5-(pyrimidin-5-ylamino)-1H-indol-1-yl)acetyl)-4-fluoro-N-(2-(4-methyl-4H-1,2,4-triazol-3-yl)phenyl) pyrrolidine-2-carboxamide], the pIC50 falls from > 6.00 to < 5.00.

First: CC(=O)c1cn(CC(=O)N2C[C@H](F)C[C@H]2C(=O)Nc2cccc3c2CN(c2ccccn2)C3)c2ccc(Nc3cncnc3)cc12 [Compound 27, (2S,4R)-1-(2-(3-acetyl-5-(pyrimidin-5-ylamino)-1H-indol-1-yl)acetyl)-4-fluoro-N-(2-(pyridin-2-yl)isoindolin-4-yl)pyrrolidine-2-carboxamide]
Second: CC(=O)c1cn(CC(=O)N2C[C@H](F)C[C@H]2C(=O)NCc2ccccn2)c2ccc(Nc3cncnc3)cc12 [Compound 17, (2S,4R)-1-(2-(3-acetyl-5-(pyrimidin-5-ylamino)-1H-indol-1-yl)acetyl)-4-fluoro-N-(pyridin-2-ylmethyl) pyrrolidine-2-carboxamide]
The pIC50 of the first is lower: 5.00 to 6.00 for the first, > 6.00 for the second. The second is the more potent here.

`CC(=O)c1cn(CC(=O)N2C[C@H](F)C[C@H]2C(=O)Nc2n[nH]c(C)c2-c2ccccc2)c2ccc(Nc3cncnc3)cc12` [Compound 66, (2S,4R)-1-(2-(3-acetyl-5-(pyrimidin-5-ylamino)-1H-indol-1-yl)acetyl)-4-fluoro-N-(5-methyl-4-phenyl-1H-pyrazol-3-yl)pyrrolidine-2-carboxamide] and `CC(=O)c1cn(CC(=O)N2C[C@H](F)C[C@H]2C(=O)Nc2cncc(Cl)n2)c2ccc(Nc3cncnc3)cc12` [Compound 33, (2S,4R)-1-(2-(3-acetyl-5-(pyrimidin-5-ylamino)-1H-indol-1-yl)acetyl)-N-(6-chloropyrazin-2-yl)-4-fluoropyrrolidine-2-carboxamide] cannot be ordered by pIC50: > 6.00 for the first, > 6.00 for the second.

With `NC(=O)c1nn(CC(=O)N2C[C@H](F)C[C@H]2C(=O)Nc2cccc(-c3ccccc3Cl)c2F)c2ccc(Nc3cccnn3)cc12` [Compound 9, 1-(2-((2S,4R)-2-(2′-chloro-2-fluorobiphenyl-3-ylcarbamoyl)-4-fluoropyrrolidin-1-yl)-2-oxoethyl)-5-(pyridazin-3-ylamino)-1H-indazole-3-carboxamide] the pIC50 was > 6.00.

Same assay, conditions: Table 2; Factor D purified from human serum, 80 nM, substrate Z-L-Lys-SBzl; read-out: IC50

`COCCOc1ncc(Nc2ccc3c(c2)c(C(C)=O)cn3CC(=O)N2C[C@H](F)C[C@H]2C(=O)Nc2cccc(Br)n2)cn1` [Compound 76, (2S,4R)-1-(2-(3-acetyl-5-(2-(2-methoxyethoxy)pyrimidin-5-ylamino)-1H-indol-1-yl)acetyl)-N-(6-bromopyridin-2-yl)-4-fluoropyrrolidine-2-carboxamide] was tested, and the pIC50 was > 6.00.

Same assay, conditions: Table 3; Factor D purified from human serum, 80 nM, substrate Z-L-Lys-SBzl; read-out: IC50 (Stars)

Compared with `CC(=O)c1cn(CC(=O)N2CC[C@H]2C(=O)Nc2cccc(C)n2)c2ccc(Nc3cccnc3)cc12` [Compound 159, (S)-1-(2-(3-acetyl-5-(pyridin-3-ylamino)-1H-indol-1-yl)acetyl)-N-(6-methylpyridin-2-yl)azetidine-2-carboxamide], `CC(=O)c1cn(CC(=O)N2C[C@H](F)C[C@H]2C(=O)NCc2ccccc2)c2ccc(Nc3cncnc3)cc12` [Compound 153, (2S,4R)-1-(2-(3-acetyl-5-(pyrimidin-5-ylamino)-1H-indol-1-yl)acetyl)-N-benzyl-4-fluoropyrrolidine-2-carboxamide] is higher in pIC50: < 5.00 for the first, > 6.00 for the second. The second is the more potent here.

`CC(=O)c1nn(CC(=O)N2C[C@H](F)C[C@H]2C(=O)Nc2cccc(Br)n2)c2ccc(Nc3cnc(C)nc3)cc12` [Compound 163, (2S,4R)-1-(2-(3-acetyl-5-((2-methylpyrimidin-5-yl)amino)-1H-indazol-1-yl)acetyl)-N-(6-bromopyridin-2-yl)-4-fluoropyrrolidine-2-carboxamide] and `CC(=O)c1nn(CC(=O)N2C[C@H](F)C[C@H]2C(=O)Nc2cccc(Br)n2)c2ccc(Nc3cncc(F)c3)cc12` [Compound 164, (2S,4R)-1-(2-(3-acetyl-5-((5-yl)amino)-1H-indazol-1-yl)acetyl)-N-(6-bromopyridin-2-yl)-4-fluoropyrrolidine-2-carboxamide] cannot be ordered by pIC50: > 6.00 for the first, > 6.00 for the second.

`CC(=O)c1cn(CC(=O)N2C[C@H](F)C[C@H]2C(=O)NCCc2ccccc2)c2ccc(Nc3cncnc3)cc12` [Compound 154, (2S,4R)-1-(2-(3-acetyl-5-(pyrimidin-5-ylamino)-1H-indol-1-yl)acetyl)-4-fluoro-N-phenethylpyrrolidin-2-carboxamide] and `CC(=O)c1cn(CC(=O)N2C[C@H](F)C[C@H]2C(=O)NCCCCc2ccccc2)c2ccc(Nc3cncnc3)cc12` [Compound 156, (2S,4R)-1-(2-(3-acetyl-5-(pyrimidin-5-ylamino)-1H-indol-1-yl)acetyl)-4-fluoro-N-(4-phenylbutyl) pyrrolidine-2-carboxamide] cannot be ordered by pIC50: > 6.00 for the first, > 6.00 for the second.
